# Test results as given in US20180343865A1, “HERBICIDAL COMPOSITIONS COMPRISING ISOXAZOLO[5,4-B]PYRIDINES” (BASF SE, priority 2015, published 2018).
# Where “and” joins values, the source holds several entries; their conditions need not be identical. Equal entries are not always repeated. Where two headings read alike, the source gives them in different places.
# Columns and labels:
# Assay type in all cases: in vivo
# Abutilon theoprasti = assay: Greenhouse postemergence herbicidal activity on ABUTH, 20 DAT
# Procedure: (§1) For the post emergence treatment, the plants were first grown to the 2 leaf station (GS 12) and applied at GS 12-19 depending on the species. The herbicidal compositions were suspended or emulsified in water as distribution medium and sprayed using finely distributing nozzles.
# (§2) The plants have been cultivated due to their individual requirements at 10 to 25° C. and. 20 to 35° C. The plants were irrigated due to their necessity.
# (§3) The respective stated components A), were formulated as a 5% by weight strength emulsion concentrate containing wettol EM 31 20% and Cyclohexanone 80%. The respective stated components B), were formulated as either emulsifiable concentrates (EC), soluble liquids (SL), suspension concentrates (SC) or soluble granules (SG) as indicated in the table below. Component A, component B and the solvent system are introduced into the spray liquor used for applying the active compound. In the examples, the solvent used was water containing 1% Dash (Agnique ME 181 37.5%, Lutensit A-EP 22.5%, and Oleic Acid 5%) and 2% ammonium suflate.
# (§4) In the following experiments, the herbicidal activity for the individual herbicide compounds (solo and mixture applications), the herbicidal succession was assessed 20 days after treatment (DAT). The evaluation for the damage on undesired weeds caused by the chemical compositions was carried out using a scale from 0 to 100%, compared to the untreated control plants. Here, 0 means no damage and 100 means complete destruction of the plants. The plants used in the greenhouse experiments belonged to the following species:
# (§5) The value E, which corresponds to the effect (in %) that is to be expected if the activity of the individual compounds is additive, was calculated using the method of S. R. Colby (1967) “Calculating synergistic and antagonistic responses of herbicide combinations”, Weeds 15, p. 22 ff. Colby calculation for 2 way mixtures:
# (§6) where: • X=effect in percent using herbicide A at an application rate a; • Y=effect in percent using herbicide B at an application rate b; • E=expected effect (in %) of A+B at application rates a+b
# (§7) If the value observed in this manner is higher than the value E calculated according to Colby, a synergistic effect is present.
# Amaranthus retroflexus = assay: Greenhouse postemergence herbicidal activity on AMARE, 20 DAT; conditions: AMARE, postemergence; for inhibition at 62.5 g/ha: 62.5 gai/ha
# Procedure: as §1, §2, §3, §4, §5, §6, §7
# Chenopodium album = assay: Greenhouse postemergence herbicidal activity on CHEAL, 20 DAT; conditions: for inhibition at 15.6 g/ha: 15.6 gai/ha; for inhibition at 125 g/ha: 125 gai/ha; for inhibition at 250 g/ha: 250 gai/ha
# Procedure: as §1, §2, §3, §4, §5, §6, §7
# Ipomoea hederacea = assay: Greenhouse postemergence herbicidal activity on IPOHE, 20 DAT; conditions: for inhibition at 125 g/ha: 125 gai/ha
# Procedure: as §1, §2, §3, §4, §5, §6, §7
# Polygonum persicaria = assay: Greenhouse postemergence herbicidal activity on POLPE, 20 DAT; conditions: Persicaria maculosa, post-emergence, 480 h, POLPE, postemergence, 20 DAT, read-out: % activity, solo (I.A)
# Procedure: as §1, §2, §3, §4, §5, §6, §7
# Sinapis arvensis = assay: Greenhouse postemergence herbicidal activity on SINAR, 20 DAT; conditions: Mutarda arvensis, post-emergence, 480 h, read-out: % activity, solo (I.A)
# Procedure: as §1, §2, §3, §4, §5, §6, §7
# ALOMY = assay: Greenhouse postemergence herbicidal activity on ALOMY, 20 DAT; conditions: Alopecurus myosuroides, post-emergence, Table 8, read-out: % activity, solo application (I.A)
# APESV = assay: Greenhouse postemergence herbicidal activity on APESV, 20 DAT; conditions: post-emergence, Table 8, read-out: % activity, solo application (I.A)
# BROST = assay: Greenhouse postemergence herbicidal activity on BROST, 20 DAT; conditions: post-emergence, 31.25 gai/ha, Table 8, read-out: % activity, solo application (I.A)
# [1] = Chenopodium album, post-emergence, Table 6, read-out: % activity, solo application (I.A)
# [2] = Chenopodium album, post-emergence, 480 h, 20 DAT, read-out: % activity, solo (I.A)
structure (smiles),measurement,setting,value
CC(C)c1noc2nc(C3CC3)cc(C(=O)O)c12 [(I.A)],"% activity, solo (I.A)","Abutilon theoprasti; 62.5 gai/ha, 20 DAT",98%
same,inhibition at 7.8 g/ha,"Abutilon theoprasti; Abutilon, post-emergence, 7.8 gai/ha, Table 8, read-out: % activity, solo application (I.A)",0%
same,inhibition at 15.6 g/ha,"Abutilon theoprasti; Abutilon, post-emergence, 15.6 gai/ha, Table 8, read-out: % activity, solo application (I.A)",0%
same,inhibition at 31.25 g/ha,"Abutilon theoprasti; Abutilon, post-emergence, 31.25 gai/ha, Table 8, read-out: % activity, solo application (I.A)",20%
same,inhibition at 62.5 g/ha,"Abutilon theoprasti; Abutilon, post-emergence, 62.5 gai/ha, Table 6, read-out: % activity, solo application (I.A)",70%
same,inhibition at 62.5 g/ha,"Abutilon theoprasti; Abutilon, post-emergence, 62.5 gai/ha, Table 8, read-out: % activity, solo application (I.A)",30%
same,inhibition at 125 g/ha,"Abutilon theoprasti; Abutilon, post-emergence, 480 h, 125 gai/ha, 20 DAT, read-out: % activity, solo (I.A)",73%
same,inhibition at 250 g/ha,"Abutilon theoprasti; Abutilon, post-emergence, 480 h, 250 gai/ha, 20 DAT, read-out: % activity, solo (I.A)",92%
same,"% activity, solo (I.A)","Amaranthus retroflexus; 31.25 gai/ha, 20 DAT",58% and 78% and 80%
same,inhibition at 62.5 g/ha,"Amaranthus retroflexus; Amaranthus retroflexus, post-emergence, 480 h, 20 DAT, read-out: % activity, solo (I.A)",94%
same,inhibition at 125 g/ha,"Amaranthus retroflexus; Amaranthus retroflexus, post-emergence, 480 h, 125 gai/ha, 20 DAT, read-out: % activity, solo (I.A)",93%
same,inhibition at 7.8 g/ha,"Amaranthus retroflexus; Amaranthus retroflexus, post-emergence, 7.8 gai/ha, Table 8, read-out: % activity, solo application (I.A)",0%
same,inhibition at 15.6 g/ha,"Amaranthus retroflexus; Amaranthus retroflexus, post-emergence, 15.6 gai/ha, Table 8, read-out: % activity, solo application (I.A)",15%
same,inhibition at 31.25 g/ha,"Amaranthus retroflexus; Amaranthus retroflexus, post-emergence, 31.25 gai/ha, Table 6, read-out: % activity, solo application (I.A)",65%
same,inhibition at 62.5 g/ha,"Amaranthus retroflexus; Amaranthus retroflexus, post-emergence, Table 8, read-out: % activity, solo application (I.A)",85%
same,"% activity, solo (I.A)","Chenopodium album; 62.5 gai/ha, 20 DAT",65% and 93%
same,inhibition at 7.8 g/ha,"Chenopodium album; Chenopodium album, post-emergence, 7.8 gai/ha, Table 8, read-out: % activity, solo application (I.A)",50%
same,inhibition at 15.6 g/ha,"Chenopodium album; Chenopodium album, post-emergence, Table 8, read-out: % activity, solo application (I.A)",85%
same,inhibition at 31.25 g/ha,"Chenopodium album; Chenopodium album, post-emergence, 31.25 gai/ha, Table 6, read-out: % activity, solo application (I.A)",58%
same,inhibition at 62.5 g/ha,"Chenopodium album; Chenopodium album, post-emergence, 62.5 gai/ha, Table 6, read-out: % activity, solo application (I.A)",78%
same,inhibition at 125 g/ha,Chenopodium album; [1],83%
same,inhibition at 250 g/ha,Chenopodium album; [1],98%
same,inhibition at 15.6 g/ha,Chenopodium album; [2],10%
same,inhibition at 125 g/ha,Chenopodium album; [2],83%
same,inhibition at 250 g/ha,Chenopodium album; [2],98%
same,"% activity, solo (I.A)","Ipomoea hederacea; 31.25 gai/ha, 20 DAT",95%
same,"% activity, solo (I.A)","Ipomoea hederacea; 62.5 gai/ha, 20 DAT",95%
same,inhibition at 31.25 g/ha,"Ipomoea hederacea; Ipomoea hederacea, post-emergence, 31.25 gai/ha, Table 6, read-out: % activity, solo application (I.A)",75%
same,inhibition at 31.25 g/ha,"Ipomoea hederacea; Ipomoea hederacea, post-emergence, 31.25 gai/ha, Table 8, read-out: % activity, solo application (I.A)",50%
same,inhibition at 62.5 g/ha,"Ipomoea hederacea; Ipomoea hederacea, post-emergence, 62.5 gai/ha, Table 6, read-out: % activity, solo application (I.A)",87%
same,inhibition at 125 g/ha,"Ipomoea hederacea; Ipomoea hederacea, post-emergence, Table 6, read-out: % activity, solo application (I.A)",98%
same,inhibition at 128 g/ha,"Ipomoea hederacea; Ipomoea hederacea, post-emergence, 128 gai/ha, Table 6, read-out: % activity, solo application (I.A)",98%
same,inhibition at 250 g/ha,"Ipomoea hederacea; Ipomoea hederacea, post-emergence, 250 gai/ha, Table 6, read-out: % activity, solo application (I.A)",99%
same,inhibition at 15.6 g/ha,"Ipomoea hederacea; Ipomoea hederacea, post-emergence, 480 h, 15.6 gai/ha, 20 DAT, read-out: % activity, solo (I.A)",65%
same,inhibition at 31.25 g/ha,"Ipomoea hederacea; Ipomoea hederacea, post-emergence, 480 h, 31.25 gai/ha, 20 DAT, read-out: % activity, solo (I.A)",75%
same,inhibition at 62.5 g/ha,"Ipomoea hederacea; Ipomoea hederacea, post-emergence, 480 h, 62.5 gai/ha, 20 DAT, read-out: % activity, solo (I.A)",87%
same,inhibition at 125 g/ha,"Ipomoea hederacea; Ipomoea hederacea, post-emergence, 480 h, 20 DAT, read-out: % activity, solo (I.A)",98%
same,inhibition at 15.6 g/ha,Polygonum persicaria; 15.6 gai/ha,70%
same,inhibition at 31.25 g/ha,Polygonum persicaria; 31.25 gai/ha,80%
same,inhibition at 15.6 g/ha,Sinapis arvensis; 15.6 gai/ha,95%
same,inhibition at 31.25 g/ha,Sinapis arvensis; 31.25 gai/ha,78%
same,inhibition at 62.5 g/ha,Sinapis arvensis; 62.5 gai/ha,83%
same,inhibition at 125 g/ha,Sinapis arvensis; 125 gai/ha,90%
same,inhibition at 15.6 g/ha,ALOMY; 15.6 gai/ha,0%
same,inhibition at 31.25 g/ha,ALOMY; 31.25 gai/ha,0%
same,inhibition at 62.5 g/ha,ALOMY; 62.5 gai/ha,20%
same,inhibition at 15.6 g/ha,APESV; 15.6 gai/ha,0%
same,inhibition at 31.25 g/ha,APESV; 31.25 gai/ha,0%
same,inhibition at 62.5 g/ha,APESV; 62.5 gai/ha,0%
same,inhibition at 31.25 g/ha,BROST,0%
